Reference: paper PMC10584170, “Machine learning-based phenotypic imaging to characterise the targetable biology of Plasmodium falciparum male gametocytes for the development of transmission-blocking antimalarials” (PLOS Pathogens, 2023)
Read-outs that look alike come from different tables or passages of the source.

Tests used:
[1] = system: P. falciparum male gametocytes; assay: P. falciparum Dual Gamete Formation Assay (PfDGFA), male readout (exflagellation); format: cell-based, Plasmodium falciparum NF54; conditions: for Average inhibition male (%) / % inhibition male (individual replicates) R1 / % inhibition male (individual replicates) R3 / % inhibition male (individual replicates) R4 / inhibition at 2 µM: 24h preincubation with gametocytes; for Selectivity Ratio M: HepG2 Tox50 versus male IC50; for IC50: PfDGFA, 24 h incubation with gametocytes before induction, exflagellation readout, read-out: Male IC50; for HitlevelM: number of replicates with >50% inhibition in the male readout
Procedure, shortened: (§1)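 First, day-14 P. falciparum NF54 gametocytes receive compound for 24 h at 37°C in 1% O2/3% CO2. Next, ookinete medium with Cy3 anti-Pfs25 triggers gametogenesis at 28°C and male exflagellation is imaged. Finally, after 24 h in the dark, Cy3-labelled females are imaged.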

[2] = system: P. falciparum female gametocytes; assay: P. falciparum Dual Gamete Formation Assay (PfDGFA), female readout (Pfs25-positive female gametes); format: cell-based, Plasmodium falciparum NF54; conditions: for Average inhibition female (%) / % inhibition female (individual replicates) R1 / % inhibition female (individual replicates) R3 / % inhibition female (individual replicates) R4 / inhibition at 2 µM: 24h preincubation with gametocytes; for Selectivity ratio F: HepG2 Tox50 versus female IC50; for IC50: PfDGFA, 24 h incubation with gametocytes before induction, female gamete readout, read-out: Female IC50; for HitlevelF: number of replicates with >50% inhibition in the female readout
Procedure, shortened: as §1

[3] = system: HepG2 cells; assay: HepG2 cytotoxicity counter-screen; conditions: cytotoxic activity against HepG2 cells
[4] = Plasmodium falciparum, PfDGFA at 2µM, average of replicates, read-out: Average inhibition male (%)
[5] = Plasmodium falciparum, PfDGFA at 2µM, replicate R1, read-out: % inhibition male (individual replicates) R1
[6] = Plasmodium falciparum, PfDGFA at 2µM, replicate R2, read-out: % inhibition male (individual replicates) R2
[7] = Plasmodium falciparum, PfDGFA at 2µM, replicate R3, read-out: % inhibition male (individual replicates) R3
[8] = Plasmodium falciparum, PfDGFA at 2µM, replicate R4, read-out: % inhibition male (individual replicates) R4
[9] = Plasmodium falciparum, PfDGFA at 2µM, average of replicates, read-out: Average inhibition female (%)
[10] = Plasmodium falciparum, PfDGFA at 2µM, replicate R1, read-out: % inhibition female (individual replicates) R1
[11] = Plasmodium falciparum, PfDGFA at 2µM, replicate R2, read-out: % inhibition female (individual replicates) R2
[12] = Plasmodium falciparum, PfDGFA at 2µM, replicate R3, read-out: % inhibition female (individual replicates) R3
[13] = Plasmodium falciparum, PfDGFA at 2µM, replicate R4, read-out: % inhibition female (individual replicates) R4
[14] = PfDGFA at 2µM, average of replicates
[15] = Plasmodium falciparum, 2µM, average of replicates, read-out: Average inhibition male (%)
[16] = Plasmodium falciparum, 2µM, replicate R1, read-out: % inhibition male (individual replicates) R1
[17] = Plasmodium falciparum, 2µM, replicate R2, read-out: % inhibition male (individual replicates) R2
[18] = Plasmodium falciparum, 2µM, replicate R4, read-out: % inhibition male (individual replicates) R4
[19] = Plasmodium falciparum, 2µM, average of replicates, read-out: Average inhibition female (%)
[20] = Plasmodium falciparum, 2µM, replicate R1, read-out: % inhibition female (individual replicates) R1
[21] = Plasmodium falciparum, 2µM, replicate R2, read-out: % inhibition female (individual replicates) R2
[22] = Plasmodium falciparum, 2µM, replicate R3, read-out: % inhibition female (individual replicates) R3
[23] = Plasmodium falciparum, 2µM, replicate R4, read-out: % inhibition female (individual replicates) R4

SMILES	Average inhibition male (%) ([1]; 2µM, average of replicates)	% inhibition male (individual replicates) R1 ([1]; 2µM, replicate R1) [%]	% inhibition male (individual replicates) R3 ([1]; 2µM, replicate R3) [%]	% inhibition male (individual replicates) R4 ([1]; 2µM, replicate R4) [%]	Selectivity Ratio M [1]	IC50 [1] [nM]	Average inhibition female (%) ([2]; 2µM, average of replicates)	% inhibition female (individual replicates) R1 ([2]; 2µM, replicate R1) [%]	% inhibition female (individual replicates) R3 ([2]; 2µM, replicate R3) [%]	% inhibition female (individual replicates) R4 ([2]; 2µM, replicate R4) [%]	Selectivity ratio F [2]	IC50 [2] [nM]	Tox50 [3] [µM]	inhibition at 2 µM [1, 4] [%]	inhibition at 2 µM [1, 5] [%]	inhibition at 2 µM [1, 6] [%]	IC50 ([1]; Plasmodium falciparum) [nM]	HitlevelM ([1]; 2µM)	IC50 ([2]; Plasmodium falciparum) [nM]	HitlevelF ([2]; 2µM)	further results
COc1c(C2CCN(CCCCNC(=O)c3ccc(-c4ccc(Cl)cc4)c(OCCN(C)C)c3)CC2)ccc2c1CCCC2 [TCMDC-134371]	98.8	97.3	99.5	100.2	3.17	1800	90.2	90.8	96.4	89.7	0.69	8290	5.71								
COc1cc2c(cc1S(=O)(=O)c1ccc(COc3ccc(C(F)(F)F)cc3)cc1)CNCC2.Cl [TCMDC-134479]					11.99						1.66		16.6	89.2	89.3	88	1380	4	> 10000	0	inhibition at 2 µM [1, 7]: 76%; inhibition at 2 µM [1, 8]: 104%; inhibition at 2 µM [2, 9]: 10%; inhibition at 2 µM [2, 10]: 16.9%; inhibition at 2 µM [2, 11]: 9.1%; inhibition at 2 µM [2, 12]: -0.43%; inhibition at 2 µM [2, 13]: 14.6%
CC(C#N)Cc1ccc(-c2cnc(N)c3cc(-c4ccnc(N)n4)ccc23)cc1 (stereo not shown) [TCMDC-134547]					7.45	320					0.24		2.39					4		0	Average inhibition male (%) [1, 14]: 85.1%; % inhibition male (individual replicates) R1 ([1]; PfDGFA at 2µM, replicate R1): 91.7%; % inhibition male (individual replicates) R3 ([1]; PfDGFA at 2µM, replicate R3): 80.2%; % inhibition male (individual replicates) R4 ([1]; PfDGFA at 2µM, replicate R4): 74.9%; Average inhibition female (%) [2, 14]: 0.03%; % inhibition female (individual replicates) R1 ([2]; PfDGFA at 2µM, replicate R1): 9.4%; % inhibition female (individual replicates) R3 ([2]; PfDGFA at 2µM, replicate R3): -8.0%; % inhibition female (individual replicates) R4 ([2]; PfDGFA at 2µM, replicate R4): 0.7%
COc1cccc(OC)c1CN1CCC(N(C)CCCCCCCCCN2CCC(OC(=O)Nc3ccccc3-c3ccccc3)CC2)CC1 [TCMDC-134690]	94.5	97.5	83.2	100.9	1.95	1560	49.9	26.2	20.7	73.0	0.8	3800	3.03								
Cc1cccc(Nc2nc(N[C@@H]3CCCNC3)nc3cc[nH]c(=O)c23)c1.O=C(O)C(F)(F)F [TCMDC-134835]					21.63						0.58		4.45				210		7690		inhibition at 2 µM [1, 15]: 97.3%; inhibition at 2 µM [1, 16]: 96.8%; inhibition at 2 µM [1, 17]: 100%; inhibition at 2 µM [1, 18]: 94.9%; inhibition at 2 µM [2, 19]: -0.142%; inhibition at 2 µM [2, 20]: 6.3%; inhibition at 2 µM [2, 21]: 4.6%; inhibition at 2 µM [2, 22]: -8.3%; inhibition at 2 µM [2, 23]: -3.2%
Cc1cccc(Nc2nc(NCCCCN)nc3cc[nH]c(=O)c23)c1.O=C(O)C(F)(F)F [TCMDC-134946]					75.16						2.87		28.66	89.5	94.1	93.5	380	4	> 10000	0	inhibition at 2 µM [1, 7]: 87.3%; inhibition at 2 µM [1, 8]: 82.9%; inhibition at 2 µM [2, 9]: 9%; inhibition at 2 µM [2, 10]: 6.6%; inhibition at 2 µM [2, 11]: 23%; inhibition at 2 µM [2, 12]: 13.1%; inhibition at 2 µM [2, 13]: -6.7%
O=C(O)C(F)(F)F.O=c1[nH]ccc2nc(N[C@@H]3CCCNC3)nc(Nc3ccc(S(=O)(=O)N4CCOCC4)cc3)c12 [TCMDC-135038]					342.32						2.68		21.89				60		8170		inhibition at 2 µM [1, 15]: 97.4%; inhibition at 2 µM [1, 16]: 93.1%; inhibition at 2 µM [1, 17]: 99.1%; inhibition at 2 µM ([1]; Plasmodium falciparum, 2µM, replicate R3, read-out: % inhibition male (individual replicates) R3): 99.2%; inhibition at 2 µM [1, 18]: 98.2%; inhibition at 2 µM [2, 19]: 14.1%; inhibition at 2 µM [2, 20]: 2.2%; inhibition at 2 µM [2, 21]: 10.6%; inhibition at 2 µM [2, 22]: 4.3%; inhibition at 2 µM [2, 23]: 39.1%
O=C(O)C(F)(F)F.O=c1[nH]ccc2nc(N[C@@H]3CCNC3)nc(Nc3cc(Cl)cc(Cl)c3)c12 [TCMDC-135052]	90.0	96.4	98.4	88.5	4.82	1530	61.3	75.7	60.7	86.1	1.49	4940	7.37								
COCCN(C)CCCOc1cc2c(cc1OC)ncn2-c1cc(OCc2ccccc2C(F)(F)F)c(C(N)=O)s1.Cl [TCMDC-135214]					22.02						1.36		13.65	64.6	90.7	80.9	620	3	> 10000	0	inhibition at 2 µM [1, 7]: 65.9%; inhibition at 2 µM [1, 8]: 20.9%; inhibition at 2 µM [2, 9]: 20.2%; inhibition at 2 µM [2, 10]: 22.9%; inhibition at 2 µM [2, 11]: 10%; inhibition at 2 µM [2, 12]: 11%; inhibition at 2 µM [2, 13]: 36.6%
